Source: patent US5238832A, “Aryl aliphatic acids” (Board of Governors of Wayne State University, priority 1992, dated 1993)

biological target: T1, 12-lipoxygenase (Sus scrofa, UniProt P16469); assay: Inhibition of 12-lipoxygenase activity by aryl aliphatic acids (porcine leukocyte cytosol, conversion of [1-14C] arachidonic acid to 12-HETE); format: biochemical; conditions: porcine leukocyte cytosol 0.075 mg/ml protein; 0.1 M HEPES, pH 8.0; 5 min preincubation, 15 min at 37° C.; arachidonic acid given as 5 mM
T1 construct: porcine leukocyte cytosol containing 12-lipoxygenase; from tissue; host or cells: porcine leukocyte cytosol
T1 sequence (P16469 1-663): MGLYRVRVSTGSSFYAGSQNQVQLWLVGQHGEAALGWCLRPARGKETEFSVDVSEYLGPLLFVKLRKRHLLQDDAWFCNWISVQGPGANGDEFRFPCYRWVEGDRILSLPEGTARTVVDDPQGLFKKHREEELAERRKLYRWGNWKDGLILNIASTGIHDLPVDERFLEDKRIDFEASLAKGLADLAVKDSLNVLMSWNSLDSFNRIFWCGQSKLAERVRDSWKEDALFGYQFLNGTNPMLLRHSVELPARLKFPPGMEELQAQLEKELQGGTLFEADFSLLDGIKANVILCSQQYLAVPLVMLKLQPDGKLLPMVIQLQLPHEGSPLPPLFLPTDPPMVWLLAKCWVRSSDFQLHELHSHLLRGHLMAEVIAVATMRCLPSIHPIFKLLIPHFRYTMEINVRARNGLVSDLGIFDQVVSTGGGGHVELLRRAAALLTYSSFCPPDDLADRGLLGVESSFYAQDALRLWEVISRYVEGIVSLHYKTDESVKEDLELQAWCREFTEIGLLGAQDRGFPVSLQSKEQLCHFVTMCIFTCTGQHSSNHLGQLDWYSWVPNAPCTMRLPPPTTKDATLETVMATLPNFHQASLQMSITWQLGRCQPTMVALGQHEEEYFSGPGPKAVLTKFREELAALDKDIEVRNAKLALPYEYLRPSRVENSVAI
Experimental: The standard assay procedure is as follows: […] [1^-14 C] Arachidonic acid was added (final concentration of […]) and the reactions were incubated for 15 minutes at 37° C. and terminated by the addition of HCl. […] Samples were extracted with water-saturated ethyl acetate and the extracts were spotted onto TLC plates. The plates were developed with dichloromethane/ethyl acetate/acetic acid in a ratio of 70:30:1. […] The percentage conversion to 12-HETE was calculated from the percentage of the total ^14 C on the TLC plate that coelutes with a standard of 12-HETE.

| SMILES | IC50 [nM] |
| --- | --- |
| CCCCCCCCCCC#CCOCc1ccc(CCC(=O)O)cc1 [Compound 24, 3-[4-(2-Tridecynyloxymethyl)phenyl]propanoic Acid] | 35 |
| CCCCCCC#CCOCc1ccc(CCC(=O)O)cc1 [Compound 25, 3-[4-(2-Nonynyloxymethyl)phenyl]propanoic Acid] | 2000 |
| CCCCCCCCC#CCOCc1ccc(CCC(=O)O)cc1 [Compound 26, 3-[4-(2-Undecynyloxymethyl)phenyl]propanoic Acid] | 100 |
| CCCCCCCCCCCCC#CCOCc1ccc(CCC(=O)O)cc1 [Compound 27, 3-[4-(2-Pentadecynyloxymethyl)phenyl]propanoic Acid] | 320 |
| CCCCCCCCCCc1ccc(COCc2ccc(CCC(=O)O)cc2)cc1 [Compound 30, 3-[4-[4-(Decylphenylmethyl)oxymethyl]phenyl]propanoic Acid] | 5000 |
| CCCCCCCCCC/C=C\COCc1ccc(CCC(=O)O)cc1 [Compound 31, cis-3-[4-(2-Tridecenyloxymethyl)-phenyl]propanoic Acid] | 1000 |
| CCCCCCCCCC/C=C/COCc1ccc(CCC(=O)O)cc1 [Compound 32, trans-3-[4-(2-Tridecenyloxymethyl)phenyl]propanoic Acid] | 400 |
| CCCCCCCCCCC=C=CCOCc1ccc(CCC(=O)O)cc1 [Compound 34, (S)-(+)-3-[4-(2,3-Tetradecadienyloxymethyl)phenyl]propanoic Acid] | 280 |
| CCCCCCCCCCC=C=CCOCc1ccc(CCC(=O)O)cc1 [Compound 35, (R)-3-[4-(2,3-Tetradecadienyloxymethyl)] | 450 |
